For series [1], the system named is colon tumors. Put plainly: AOM-induced colon tumors in mouse strain crossbred from 129/Ola and C57BL/6J (Table 3). It is filed as in vivo. To be noted: 23 weeks; for Body Weight / Colon Tumors Multiplicity = average number of tumors/mouse / Colon Tumors Prevalence (%) = percent of tumor-bearing mice / Colon Tumors Total Number: AOM 10 mg/kg I.P. 4 consecutive weeks. As for the experimental part:
The colons and livers were macroscopically examined. […] Tumor size was measured with a caliper. […] In addition, the size of the tumors in wild type mice was large (over 55% of tumors 22 mm^3). The tumors were predominantly observed in the lower half of the descending colon.

Series [2] deals with colon tumors. Put plainly: AOM-induced colon tumors in F2 mice crossbred with SWR/J (Table 4). It counts as in vivo, mouse. The conditions noted are these: AOM 10 mg/kg I.P. 4 consecutive weeks, 26 weeks. As for the experimental part:
. […] The colons and livers were macroscopically examined. […] Tumor size was measured with a caliper.
In Example 2, clear-cut results were obtained that the AT2 receptor is involved in AOM-induced colon cancer. A concern was that this might be true only in the mouse strain crossbred from 129/OIa and C57BL/6J mouse strains. In order to overcome this problem, the AT2-KO mice in this crossbred strain were back-crossed with SWR/J mice, whose susceptibility to AOM is established. During the course of back-crossing, similar experiments were performed as described in Example 1, using F2 male wild and AT2-KO mice.

Series [3] deals with cytochrome P450 proteins (CYP1A1, 1A2 and 2E1) in liver. Put plainly: inducibility of CYP1A1, 1A2 and 2E1 in the liver after AOM. It counts as in vivo, mouse. The conditions noted are these: AOM 15 mg/kg bolus I.P. An excerpt:
Anti-rabbit anti-human CYP1A1/1A2 and CYP2E1 antisera were obtained from Dr. F. P. Guengerich, Department of Biochemistry, Vanderbilt University. See Soucek et al., (1995) Biochem. 34:16013-16021; Shimada et al., (1992) Mol. Pharmacol. 41:856-864. The cross-reactivities of these antibodies to mouse CYP1A1/1A2 and 2E1 have been characterized.
The inducibilities of CYP1A1, 1A2 and 2E1 in the liver were exaimed.

Another series has as its system hepatic CYP2E1. As to the kind of experiment: hepatic CYP2E1 protein expression after AOM, Western blot of liver microsomes. For orientation: In western blotting, separated proteins are transferred to a membrane and probed.
The test system of series [4] is O^6-methylguanine adduct in colon DNA. As to the kind of experiment: colonic O^6-methylguanine adduct level after AOM, immuno-slot-blot.
Method: AT2 receptor blocker PD123319 treatment (15 mg/kg/12 h, gavage administration and 50 μg/ml in drinking tap water) was initiated 3 h prior to the AOM treatment. The control group for the AOM treatment received saline. Mice for the short term study were sacrificed 6 h or 24 h after AOM treatment.
Immediately after the mice were sacrificed by cervical dislocation, the colon was excised, washed with phosphate-buffered saline, divided into proximal and distal segments, and snap-frozen in liquid N2. Small portions of each lobe of the liver were also removed and frozen in the same manner. Tissue was digested in a lysis buffer consisting of 10 mM Tris-HCl, pH 7.4, 1 mM EDTA, 1% SDS, 5× SSC and 0.2 mg/ml Proteinase K. DNA was extracted by phenol/chloroform/isoamyl alcohol and precipitated with ice-cold ethanol by standard protocols. Samples were then treated with RNase A (50 mg/ml) and DNA was fragmented by sonication. The concentration of DNA was determined by the absorbance at 260 nm.
DNA samples were heat-denatured for 10 min, immediately chilled on ice, and mixed with an equal volume of 2 M ammonium acetate. […] Relative blot intensities were measured by densitometry using a Fluor-S image analyzer (Bio-Rad Laboratories, Inc., Hercules, Calif., United States of America).
The conditions of series [5]: chronic administration, 30 mg/kg/day, rats; cited from earlier work.
Another series deals with T1, AT2 receptor (Mus musculus, UniProt P35374).
T1 sequence (P35374 1-363): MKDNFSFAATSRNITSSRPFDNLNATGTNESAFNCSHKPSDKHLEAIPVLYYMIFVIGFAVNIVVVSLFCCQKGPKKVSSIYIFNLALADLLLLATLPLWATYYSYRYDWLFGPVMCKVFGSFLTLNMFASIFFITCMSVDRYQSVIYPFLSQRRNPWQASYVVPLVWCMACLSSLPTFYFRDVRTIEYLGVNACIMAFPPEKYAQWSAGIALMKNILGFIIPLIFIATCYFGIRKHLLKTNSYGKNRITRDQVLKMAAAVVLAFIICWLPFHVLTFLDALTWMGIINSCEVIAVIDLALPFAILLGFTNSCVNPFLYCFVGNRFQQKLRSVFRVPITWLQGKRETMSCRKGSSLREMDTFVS
The conditions noted are these: read-out: IC50 for the inhibition of ligand-receptor binding; cited from earlier work.

In series [6] the test system is colon polyp or adenocarcinoma. Put plainly: Example 1: course of oral PD123319 treatment of colon polyps and colorectal adenocarcinoma. It counts as in vivo. As for the experimental part: PD123319, an angiotensin II receptor (AT2 receptor) antagonist, is available in 1-mg, 10-mg, 50-mg, 100-mg, 250 mg, 500 mg, and 1000 mg tablets for oral administration and in 1-mg, 10-mg, 50-mg, 100-mg, 500 mg, 1000 mg, 5000 mg, and 10,000 mg suppositories for rectal administration.
PD123319 is indicated for the treatment of colorectal cancer including non-malignant polyps of the colon and colorectal adenocarcinoma. There are no known contradictions to treatment with PD123319.
A 12-20 week course of therapy yields a remission of adenocarcinoma (e.g., tumor number and/or volume) in greater than 79% of individuals that are diagnosed with at least one adenocarcinoma. Total dose per day is determined by severity (number and/or cancer stage) as assessed by a treating veterinarian or physician. A preferred course of treatment for a patient with colorectal polyps is 10-30 mg (medication) per kg (body weight) per day. A preferred course of treatment for a patient with colorectal adenocarcinoma is 20-30 mg/kg/day. In certain cases, a course of treatment for a patient with colorectal adenocarcinoma is 100 mg/kg/day administered orally or as a suppository. A preferred maintenance or chemoinhibitory course of therapy is typically 1.0 to 10 mg/kg. […]

The conditions of series [7]: daily administration of the pressor dose (10-50 mg/kg/day), man and animals; cited from earlier work.
Series [8] concerns the target T2, mouse angiotensin II type 2 receptor (mouse, UniProt P35374 1-363).
T2 construct: Native receptor in mouse tissue (liver and colon plasma membranes, liver nuclei), not a recombinant construct; also called AT2 receptor; AT2
T2 sequence: T1 sequence (P35374 1-363)
As to the kind of experiment: radioligand-receptor binding on mouse liver and colon plasma membranes.

The mark [9] stands for this setting: AOM 10 mg/kg bolus I.P., both wild type and AT2-null mice.

Marks after values point to notes of the source that are not given here.

Method for hepatic CYP2E1: AT2 receptor antagonist PD123,319 treatment (15 mg/kg/12 h, gavage administration, and 50 μg/ml in drinking tap water) was initiated 3 h prior to the AOM treatment. The liver was dissected out and the microsomal fractions were subjected to SDS-polyacrylamide gel electrophoresis followed by immunoblotting with anti-human CYP2E1 antibodies.
AT2 receptor blocker PD123319 treatment (15 mg/kg/12 h, gavage administration and 50 μg/ml in drinking tap water) was initiated 3 h prior to the AOM treatment. The control group for the AOM treatment received saline. Mice for the short term study were sacrificed 6 h or 24 h after AOM treatment. […] The remaining tissues were frozen in liquid nitrogen and stored at −80° C.
Tissues were individually homogenized by a Polytron homogenizer in three volumes of 1 mM Tris-HCl buffer, pH 7.5, containing 1 mM EDTA, 0.25 M sucrose and protease inhibitor cocktail. The supernatant from 10,000× g centrifugation of the homogenate for 15 min was further centrifuged at 100,000× g for 1 h. The microsomal membranes were suspended in 100 mM NaH2PO4, pH 7.4, 10 mM MgCl2, 20% glycerol, and protease inhibitor cocktail, and 25 μg of the membrane protein was subjected to Western blot analysis.
The liver microsomal membranes were lysed with 0.5 ml lysis buffer (10 mM Tris-HCl (pH 7.4), 1% SDS). After sonication, the lysate was boiled for 5 min. […]

In the case of `CN=[N+](C)[O-]` [AOM, azoxymethane], in the series on colon tumors [1] (AT2-KO mice), the “Body Weight” value turned out to be 36.5 ± 1.6 g, the “Colon Tumors Multiplicity = average number of tumors/mouse” value turned out to be 0.11, the “Colon Tumors Prevalence (%) = percent of tumor-bearing mice” value is listed as 11.1% and the “Colon Tumors Total Number” value is given as 1. Besides, in the series on colon tumors [1] (Control (wild type) mice), the “Body Weight” value worked out at 36.5 ± 4.3 g, the “Colon Tumors Multiplicity = average number of tumors/mouse” value came out at 7.38, the “Colon Tumors Prevalence (%) = percent of tumor-bearing mice” value was determined as 100% and the “Colon Tumors Total Number” value is reported as 59. For the same molecule, in the series with colon tumors [1] (wild type mice, AOM 10 mg/kg I.P. 4 weekly), the “share of tumors 22 mm^3 (large tumors)” value is listed as “over 55%”. In addition, in the series with colon tumors [2] (AT2-KO F2 male mice), the “Colon Tumors Multiplicity” value amounted to 6.3, the “Colon Tumors Prevalence (%)” value was 100.0%, the “Colon Tumors Total Number” value came to 50 and the “Colon Tumors Volume (mm^3) = total tumor volume/number of tumors” value turned out to be 19.8 ± 3.0 mm^3. In the series on colon tumors [2] (Control (wild) F2 male mice), the “Colon Tumors Multiplicity” value is 12.0, the “Colon Tumors Prevalence (%)” value amounted to 100.0%, the “Colon Tumors Total Number” value worked out at 96 and the “Colon Tumors Volume (mm^3) = total tumor volume/number of tumors” value was 36.8 ± 3.2* mm^3. Besides, the “effect on hepatic cytochrome P450 levels” value in series [3] (AT2-KO mice, 24 h after injection) is listed as “decreased substantially”. For the same molecule, the “effect on levels of cytochrome P450 proteins in liver” value in series [3] (wild type mouse liver) was “significantly increased”. Also, in the series with hepatic CYP2E1 (setting [9]), the “effect on CYP2E1 protein expression in liver” value is given as “significantly downregulated”. Besides, the “effect on colonic O^6-methylguanine levels” value in [4] (setting [9]) is given as “time-dependently increased”.
For orientation: IC50 means the concentration that gives 50% inhibition. As to `Cc1cc(Cn2cnc3c2C[C@@H](C(=O)O)N(C(=O)C(c2ccccc2)c2ccccc2)C3)ccc1N(C)C` [PD123319], the “effect on AOM-induced CYP2E1 downregulation in the liver” value with hepatic CYP2E1 (wild type mice, pretreatment 15 mg/kg/12 h by gavage and 0.35 mg/kg/h in drinking water, AOM 10 mg/kg I.P., 24 h) is on record as “significantly attenuated”. The adverse effects result in series [5] is recorded as “does not show any adverse effects”. Moreover, the IC50 on AT2 receptor is 10 nM. Also, the “effect on AOM-induced increase in the colonic O^6-methylguanine level” value in series [4] (wild type mice, 15 mg/kg/12h by gavage and 0.35 mg/kg/h in drinking water, 24 h after AOM 10 mg/kg) is listed as “markedly attenuated”. In addition, in [6] (4-8 week course, oral administration), the “colon polyp or adenocarcinoma number as determined by endoscopy” value is listed as “significant reduction”. In addition, the “remission of adenocarcinoma (tumor number and/or volume)” value in series [6] (12-20 week course of therapy, individuals diagnosed with at least one adenocarcinoma) was “greater than 79 % of individuals”.
In the case of `CCCCc1nc(Cl)c(CO)n1Cc1ccc(-c2ccccc2-c2nn[nH]n2)cc1` [losartan], the side effects result in series [7] is “no serious side effects”.

B1: [^125I]Sar^1·Ile^8·Ang II (peptide)
peptide: XRVYIHPI
modifications: sarcosine at position 1 in place of Asp; 125I label
notes: X stands for sarcosine
Regarding B1, the binding result in series [8] was “binds”.

(Values after US20030083339A1, “Compositions and methods for treating colorectal polyps and cancer” (priority 2001, published 2003).)
